Experimental data published in PubChem BioAssay (NCI).
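Growth conditions: 96-well plates. Treatment: test compound, 48 hours, 5 concentrations. Analysis: linear interpolation between bracketing concentrations; unreached endpoints set to highest concentration. TGI: total growth inhibition.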

Assays:
Experiment in all cases: growth of human tumour cells (NCI), 48 h
A498 renal = system: A498 renal
CCRF-CEM leukemia = system: CCRF-CEM leukemia
COLO 205 colon = system: COLO 205 colon
HCC-2998 colon = system: HCC-2998 colon
IGROV1 ovarian = system: IGROV1 ovarian
K-562 leukemia = system: K-562 leukemia
M14 melanoma = system: M14 melanoma
OVCAR-5 ovarian = system: OVCAR-5 ovarian
PC-3 prostate = system: PC-3 prostate
SK-MEL-2 melanoma = system: SK-MEL-2 melanoma
SK-MEL-28 melanoma = system: SK-MEL-28 melanoma
SW-620 colon = system: SW-620 colon
UACC-257 melanoma = system: UACC-257 melanoma
UACC-62 melanoma = system: UACC-62 melanoma

Structure (SMILES)	TGI (A498 renal) [µM]	TGI (CCRF-CEM leukemia) [µM]	TGI (COLO 205 colon) [µM]	TGI (HCC-2998 colon) [µM]	TGI (IGROV1 ovarian) [µM]	TGI (K-562 leukemia) [µM]	TGI (M14 melanoma) [µM]	TGI (OVCAR-5 ovarian) [µM]	TGI (PC-3 prostate) [µM]	TGI (SK-MEL-2 melanoma) [µM]	TGI (SK-MEL-28 melanoma) [µM]	TGI (SW-620 colon) [µM]	TGI (UACC-257 melanoma) [µM]	TGI (UACC-62 melanoma) [µM]
Cc1ccc(C(=O)c2[nH]c(NCc3ccccc3)c(C(=S)Nc3ccccc3)c2N)cc1	31.6	28.9	18	2.65	19.9	5.11	3.97	27	26.1	22.8	9.97	5.19	18.4	25.2
COc1ccc(/C=N/n2c(Cc3ccccc3)n[nH]c2=O)c(OC)c1	> 66	> 100	> 31.6	> 100	> 100	> 100	> 100	> 100	> 100	> 100	> 100	> 100	> 100	> 100
CCOC(=O)/C(=C\n1c(=O)sc2ccccc21)C(=O)c1ccccc1	> 100	> 100	> 100	> 100	> 100	> 100	> 100	> 100	> 100	> 100	> 100	> 100	> 100	> 100
CCOc1ccc(NC(=O)/C=C/c2ccco2)cc1	> 100	> 100	> 100	> 100	> 100	> 100	> 100	> 100	> 100	> 100	> 100	> 100	> 100	> 100
CSCCCNC(=O)c1csc(-c2csc(CCNC(=O)CNC(=O)OC(C)(C)C)n2)n1	> 100	> 100	> 100	> 100	> 100	> 100	> 100	> 100	> 100	> 100	> 100	> 100	> 100	> 100
CC(=O)O[C@H]1[C@@H](N2CCCCC2)C[C@H]2[C@@H]3CC=C4C[C@@H](N5CCCC5)CC[C@]4(C)[C@H]3CC[C@@]21C	> 100	> 100	> 100	34.4	> 100	22.5	36.4	> 100	> 100	> 100	48.9	> 100	87.7	> 100
NC(N)=NS(=O)(=O)c1ccc(NCc2cccc3c(=O)c4ccc(Cl)cc4oc23)cc1	> 15.3	> 7.9	> 20.3	> 25	> 11	> 25	> 16.3	> 18.9	> 14	> 16.7	> 23.6	> 16.8	> 25	> 24.1
CCc1cccc(CC)c1Nc1nc(-c2ccccc2-c2ccccc2)cs1	> 100	> 100	> 100	> 100	> 100	> 100	> 100	> 100	> 100	> 100	> 100	> 100	> 100	> 100
Cc1ccccc1-n1c(=O)nc2n(-c3ccc(C(C)(C)C)cc3)c3ccccc3cc-2c1=O	86.6	50.5	41.6	32.4	64.5	> 100	32.4	63.6	45.6	34.8	28.7	33.5	37.1	41
O=C1NCC2(CCN(CC3COc4ccccc4O3)CC2)N1c1ccccc1 (configuration not stated)	> 100	> 100	> 100	> 100	> 100	> 100	> 100	> 100	> 100	> 100	> 100	> 100	> 100	> 100
Cc1ccc2c(n1)C(=O)c1cc(C)c(C)cc1C2=O	> 100	> 100	> 100	> 100	> 100	> 100	> 100	> 100	> 100	> 100	> 100	> 100	> 100	> 100
Cc1cc(NS(=O)(=O)c2ccc(NC(=O)c3ccc4nc5ccccc5c(Nc5ccc(S(N)(=O)=O)cc5)c4c3)cc2)no1	> 100	78.3	43.8	> 100	> 100	44.6	> 100	65.8	> 100	73.3	50.7	72.3	57.8	67.7
CCCCCCCCCCCCCCCCNc1nc(=O)n(C2CC(O)C(COP(=O)(O)OC3CC(n4cc(F)c(=O)[nH]c4=O)OC3CO)O2)cc1F (configuration not stated)	> 89.6	17.6	47.4	11	> 59.9	24.1	16.5	> 100	> 78.6	> 63.9	> 68.7	> 100	> 59	17.3
